From patent publication US20240099951A1, “HAIR GROWTH STIMULANT” (ADJUVANT HOLDINGS CO., LTD., priority 2020, published 2024)

System: VEGF gene
Assay: Human dermal papilla cell VEGF gene expression (real-time PCR)
Format: cell-based
Settings: 72 hours; for amount of expression of the VEGF gene as compared with the control group: human dermal papilla cells
Description: Human dermal papilla cells (Catalog No. CA602t05a; derived from person; Toyobo Co., Ltd. (Japan)) were purchased, testing and evaluation being carried out with maintenance and culture of cells being performed as described in the protocol.
As drugs for testing, drug solutions of the following respective concentrations (final concentrations) were prepared and used. • Comparative Example 5: 30 μM minoxidil • Comparative Example 6: 100 μM adenosine • Working Example 3: 0.3125 μM phytosphingosine • Working Example 4: 1.25 μM phytosphingosine
A 24-well plate was seeded with human dermal papilla cells so as to obtain 6×10^3 thereof per well. Following culture for 1 day within a CO2 incubator (5% CO2; 37° C.), the culture medium was replaced with culture medium which contained the respective drugs for testing. The cell plate was thereafter returned to the CO2 incubator, and this was further cultured for 72 hours. Following culture, total RNA was extracted from the respective wells and was recovered, and this was reverse-transcribed into cDNA. The cDNA that was prepared was used to measure VEGF gene expression in accordance with the real-time PCR method. The GAPDH gene was used as an internal standard, the amount of VEGF gene expression being calculated relative to the negative control group. […]
300 μL of lysis buffer RL was added thereto per well, and the cells were lysed by pipetting. […] Concentration of the recovered RNA was measured using a NanoDrop Lite (Catalog No. ND-LITE; Thermo Fisher Scientific K.K.), and this was stored at −80° C. until the following cDNA creation procedure.
A FastGene scriptase II cDNA synthesis 5X Ready Mix (Catalog No. NE-LS64; Nippon Genetics Co., Ltd. (Japan)) was used to synthesize cDNA. Dilution with RNase Free Water was carried out so as to cause concentration of total RNA produced in a new tube to be 20 ng/mL, 4 μL of FastGene scriptase II cDNA synthesis 5X Ready Mix was added to 16 μL of this sample solution, and this was agitated by vortexing. […]

SMILES: CCCCCCCCCCCCCC[C@@H](O)[C@@H](O)[C@@H](N)CO [phytosphingosine]
- amount of expression of the VEGF gene as compared with the control group (0.3125 μM phytosphingosine (Working Example 3)): increase
- amount of expression of the VEGF gene as compared with the control group (1.25 μM phytosphingosine (Working Example 4)): increase
- amount of expression of the VEGF gene compared with 30 μM minoxidil (Comparative Example 5) or 100 μM adenosine (Comparative Example 6) (increased amount of phytosphingosine added): greater
